Read-outs that look alike come from different tables or passages of the source.

One series relates to Escherichia coli. Description: Disc diffusion antimicrobial assay, Escherichia coli. The series is classed as cell-based. The settings on record: for zone of inhibition at 10 µg/disc / zone of inhibition at 50 µg/disc / zone of inhibition at 100 µg/disc: Escherichia coli, 6.5 mm disc, read-out: diameter of the clear zone of inhibition; for zone of inhibition at 10 µg/disc: 10 μg/disk; for zone of inhibition at 50 µg/disc: 50 μg/disk.

The test system of a further series is Bacillus subtilis. The series can be described thus: Disc diffusion antimicrobial assay, Bacillus subtilis. It counts as cell-based. The conditions noted are these: Bacillus subtilis, 6.5 mm disc, read-out: diameter of the clear zone of inhibition; for zone of inhibition at 10 µg/disc: 10 μg/disk; for zone of inhibition at 50 µg/disc: 50 μg/disk; for zone of inhibition at 100 µg/disc: 100 μg/disk.

The test system of series [1] is Herpes simplex virus, type I (HSV-1). Description: microbe, parasite or virus in culture. It counts as cell-based. The conditions noted are these: for zone of inhibition at 20 µg/disc / zone of inhibition at 50 µg/disc / zone of inhibition at 100 µg/disc / zone of inhibition at 200 µg/disc: Human alphaherpesvirus 1, in Primates.
The subject of series [2] is vesicular stomatitis virus (VSV). The series can be described thus: microbe, parasite or virus in culture. It counts as cell-based. The conditions noted are these: for zone of inhibition at 20 µg/disc / zone of inhibition at 50 µg/disc / zone of inhibition at 100 µg/disc / zone of inhibition at 200 µg/disc: Vesicular stomatitis virus, in Primates.
In series [3] the test system is Herpes Simplex Virus type 1 (HSV-1). Description: Antiviral activity against HSV-1 determined by Dr. R. G. Hughes, Jr.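 Further: grades: +++ strong ++ moderate + light ± questionable - negative.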 The series is classed as cell-based.
In another series the test system is E. coli strain BR339. The series is classed as cell-based.
Series [4] relates to monkey kidney (CV-1) cells. The series can be described thus: Cytotoxicity to monkey kidney (CV-1) cells.
The test system of series [5] is Monkey Kidney Cells (CV-1). Description: Cytotoxicity to monkey kidney cells (CV-1) determined by Dr. R. G. Hughes, Jr. The conditions noted are these: 8 or less essentially indicates noncytotoxicity.
Series [6] has as its system vesicular stomatitus virus (VSV). It counts as cell-based. The conditions noted are these: 100 μg/disk.
Series [7] is described as follows: Stability of isolated solids. The series is classed as physicochemical. The conditions noted are these: diacetate salts, amorphous solids.
A short description of series [8]: Water solubility (in words). The series is classed as physicochemical. The conditions noted are these: relative to 1a-6a.
The next series relates to serotonergic receptor. The settings on record: cited from earlier work.
The test system of the next series is KB carcinoma. The settings on record: cited from earlier work.
Setting [9] is: read-out: antiviral activity, HSV-1, ++ scale.
Where [10] appears, read: read-out: antiviral activity, HSV-1, zone diameter.
Where [11] appears, read: read-out: antiviral activity, VSV, ++ scale.
[12] abbreviates: read-out: antiviral activity, VSV, zone diameter.

For the compound `Nc1ncc(C2c3nc(N)[nH]c3CC(CNC(=O)c3cc(Br)c(Br)[nH]3)C2CNC(=O)c2cc(Br)c(Br)[nH]2)[nH]1` (stereo not shown) [Compound 6a, Dibromoageliferin Acetate], the zone of inhibition at 10 µg/disc with Escherichia coli stood at 0 mm; in the series on Bacillus subtilis, 8 mm. The zone of inhibition at 50 µg/disc in the series on Escherichia coli was 7 mm; in the series on Bacillus subtilis it was 9 mm; in series [1] (setting [9]) it was 11 to 15 mm; in series [1] (setting [10]), 11 mm; in series [2] (setting [11]), 8 to 10 mm; in [2] (setting [12]), 8 mm. The zone of inhibition at 100 µg/disc in the series with Escherichia coli (100 μg/disk) was 7 mm; in the series on Bacillus subtilis, 9 mm; in series [1] (setting [9]) it was 11 to 15 mm; in series [1] (setting [10]) it was 11 mm; in [2] (setting [11]), 8 to 10 mm; in series [2] (setting [12]), 9 mm. For the same compound, the zone of inhibition at 20 µg/disc in series [1] (setting [9]) was 8 to 10 mm; in [1] (setting [10]) it was 9 mm; in series [2] (setting [11]), less than 7 mm; in [2] (setting [12]) it was 0 mm. Also, the zone of inhibition at 200 µg/disc in series [1] (setting [9]) was 11 to 15 mm; in series [1] (setting [10]), 12 mm; in [2] (setting [11]), 8 to 10 mm; in [2] (setting [12]), 10 mm. Besides, the HSV-1 activity result in series [3] (25 μg/disk) is given as “-”; in series [3] (50 μg/disk) it was “±”; in series [3] (100 μg/disk) it was “±”. The “BIA activity, numerical color intensity scale 0-10” value with E. coli strain BR339 is reported as 2. Further, the “traces of cytotoxicity, zone” value in series [4] (all concentrations (200, 100, 50, 20 μg/disk)) is not above 8 mm. Besides, the “cytotoxicity, zone diameter” value in [5] (25 μg/disk) amounted to 6 mm; in series [5] (50 μg/disk), 8 mm; in series [5] (100 μg/disk), 10 mm.
`NC1=NC(=O)C(C2C(CNC(=O)c3ccc[nH]3)C(CNC(=O)c3cc(Br)c[nH]3)C2c2cnc(N)[nH]2)N1` (stereo not shown) [Compound 7a, Debromooxysceptrin Acetate]: in the series on Escherichia coli (100 μg/disk), the “activity against Escherichia coli” value was “inactive”. In addition, the zone of inhibition at 10 µg/disc with Escherichia coli and in the series with Bacillus subtilis was 0 mm in each case. Besides, the zone of inhibition at 50 µg/disc was 0 mm in the series with Escherichia coli, 7 mm with Bacillus subtilis, less than 7 mm in series [1] (setting [9]) and 0 mm in series [1] (setting [10]). The zone of inhibition at 100 µg/disc was 0 mm with Escherichia coli (100 μg/disk), 8 mm in the series with Bacillus subtilis, less than 7 mm in series [1] (setting [9]) and 0 mm in [1] (setting [10]). Further, the “activity against HSV-1” value in [1] was “essentially inactive”. For the same compound, the “antiviral zone appearance” value in series [1] was “diffuse zones”. Further, the zone of inhibition at 20 µg/disc in series [1] (setting [9]) was less than 7 mm; in series [1] (setting [10]), 0 mm. Further, the zone of inhibition at 200 µg/disc in series [1] (setting [9]) was 8 to 10 mm; in [2] (setting [11]), less than 7 mm; in series [2] (setting [12]), 0 mm. Further, the “activity against VSV” value in series [2] (200 μg/disk) was “essentially inactive”. Besides, the HSV-1 activity result in series [3] (25 μg/disk), in series [3] (50 μg/disk) and in series [3] (100 μg/disk) was “-” throughout. In addition, the VSV activity entry in [6] is “±”. In addition, the “BIA activity” value with E. coli strain BR339 is “somewhat less active”. For the same compound, the “BIA activity, numerical color intensity scale 0-10” value in the series with E. coli strain BR339 worked out at 4. Besides, the “BIA zone appearance” value with E. coli strain BR339 is reported as “more diffuse zone”. Moreover, the “stability” value in [7] is on record as “stable”. In addition, in [8], the “water solubility” value is “more water soluble”. For the same compound, the “traces of cytotoxicity, zone” value in series [4] (200 μg/disk) was not above 8 mm. In addition, the “cytotoxicity, zone diameter” value was 5 mm in series [5] (25 μg/disk), 5 mm in series [5] (50 μg/disk) and 6 mm in [5] (100 μg/disk).
As for `Cn1c(/C=C\CNC(=O)c2cc(Br)c[nH]2)cnc1N` [Keramidine], in the series with serotonergic receptor, the “serotonergic receptor activity” value is recorded as “serotonergic receptor antagonist”.
As for `N=C(N)NC(=O)c1cc(Br)c[nH]1` [N-amidino-4-bromopyrrole-2-carboxamide], the “effect on KB carcinoma” value in the series with KB carcinoma is listed as “KB carcinoma-altering”.
